“Also recorded” adds a separate entry of the source.

Common to all, as to assay type: cell-based
In assay [1] the test system is nucleus (DAPI nuclear marker). In words: Confocal fluorescence microscopy, subcellular localization. Conditions: 24 hours incubation at 37° C. How it is done: Subcellular localization was determined using confocal fluorescence microscopy. 150000 cells were seeded on previously sterilized glass coverslips in 35 mm dishes 24 hours before incubation with the drug. […] The cells were then fixed with 3% paraformaldehyde for 20 minutes at room temperature. DAPI (4′,6-diamidino-2-phenylindole) (600 nM) was incubated with the cells and used as a nuclear marker. The cells were mounted with SlowFade Light Antifade medium (Molecular Probes, Eugene, Oreg.) and sealed as described previously. The cells were then imaged on a Zeiss (Thornwood, N.Y.) LSM 510 confocal imaging system with an Axioplan 2 microscope (100× plan-apo objective, NA=1.4, oil) and a titanium sapphire multiphoton laser (mesochlorin, excitation 800 nm, emission 650 nm low pass filter; DAPI, excitation 800 nm, emission 461 nm band pass filter). The settings for all the confocal systems were adjusted so that control cells yielded dark images.
In these images, DAPI is represented by […] fluorescence. […] Mce6 is stained red in color. […] These two windows separately indicate the subcellular localization of Mce6 and DAPI respectively. These 2 windows are superimposed in window D to display a composite image.

The target of assay [2] is T1, green fluorescent protein tagged-GR (GFP-GR) (Rattus norvegicus, UniProt P06536, C656G).
T1 construct: expressed in transfected cells
T1 sequence (P06536 1-795 C656G): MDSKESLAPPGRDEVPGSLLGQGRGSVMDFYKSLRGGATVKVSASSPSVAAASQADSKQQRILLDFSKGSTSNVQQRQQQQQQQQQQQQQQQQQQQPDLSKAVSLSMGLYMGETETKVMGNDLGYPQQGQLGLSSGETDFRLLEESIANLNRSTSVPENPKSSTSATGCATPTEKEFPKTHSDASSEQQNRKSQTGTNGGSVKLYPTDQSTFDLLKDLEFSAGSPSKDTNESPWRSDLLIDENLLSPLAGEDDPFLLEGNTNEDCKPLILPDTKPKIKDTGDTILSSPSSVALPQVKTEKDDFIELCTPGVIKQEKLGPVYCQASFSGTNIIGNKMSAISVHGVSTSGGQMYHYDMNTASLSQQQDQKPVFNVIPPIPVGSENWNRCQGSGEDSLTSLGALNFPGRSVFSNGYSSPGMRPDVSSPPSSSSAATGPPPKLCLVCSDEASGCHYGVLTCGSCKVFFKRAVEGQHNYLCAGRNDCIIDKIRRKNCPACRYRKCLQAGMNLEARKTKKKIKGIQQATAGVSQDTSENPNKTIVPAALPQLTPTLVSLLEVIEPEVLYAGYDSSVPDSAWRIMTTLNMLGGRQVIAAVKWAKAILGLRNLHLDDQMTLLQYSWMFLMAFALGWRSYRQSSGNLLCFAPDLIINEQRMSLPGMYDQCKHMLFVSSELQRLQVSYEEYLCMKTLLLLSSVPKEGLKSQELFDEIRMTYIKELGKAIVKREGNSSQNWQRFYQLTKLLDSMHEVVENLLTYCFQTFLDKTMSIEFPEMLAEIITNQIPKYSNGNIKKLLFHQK
The experiment in a line: GFP-GR system, biorecognition (nuclear translocation of GFP tagged GR). Conditions: fluorescence microscopy, 37° C., Mce6 at 20 μM and 30 μM, images up to 30 minutes. How it is done: This system involves the generation of GFP labeled GR in the cell. The cells are then treated with the drug and the change in the localization of the fluorescently tagged GR is followed. Cells were transfected with GFP-GR plasmids as previously. Briefly, 5×10^6 cells were transfected with 2 μg of the GFP-GR plasmid plus carrier DNA using an Electrosquare porator ECM 830 system (BTX, San Diego, Calif.). The electroporation was performed using 3 pulses each of 135 V for 10 milliseconds, […]. Cells were allowed to recover on ice for 5 minutes and were then diluted with phenol red-free DMEM with 10% charcoal stripped FBS and plated on a clear cover glass (Corning no. 1, 22 mm^2) into live cell chambers (Lab-Tek II chambered cover glass with cover). These cells were incubated in cell culture conditions for 24 hrs. […] The import of GFP-receptor-conjugate complexes was monitored using an Olympus IX701F inverted fluorescence microscope and an EGFP filter set (Chroma Technology Corp.) (exciter 480 nm, emitter 510 nm, beam splitter 495 nm). Cells were maintained at 37° C. using a Nevtek ASI 400 Air Stream Incubator (variable temperature control) attached to a temperature probe as previously. Cells were photographed using an F-View Monochrome CCD camera.

The subject of assay [3] is murine adenocarcinoma (1471.1) cells. The experiment in a line: Cytotoxicity after illumination, WST-8 assay. Conditions: incubated 4 hours, DMEM with 10% charcoal stripped FBS, illuminated 30 min, Mce6 equivalents, read-out: IC50 (μM) (Mean ± SD). How it is done: The IC50 (concentration that inhibits growth by 50%) was determined utilizing a WST-8 assay. Four thousand cells were seeded into 96 well plates and incubated overnight in a humidified atmosphere containing 5% CO2. […] The incubation period was 10 hours in the case of the HPMA copolymer-bound Mce6 conjugates. After the period of incubation, the media containing the drug was removed and 100 μL of fresh media was added and the cells were promptly illuminated for 30 min. The light source was three ENH Tungsten halogen lamps (120 V/250 W) placed in parallel, attenuated by three band-pass interference filters (Melles Griot Co., Carlsbad, Calif.). The light energy was approximately 2 mW cm^−2 as determined using a radiometer.
After illumination, the cells were incubated in a humidified atmosphere containing 5% CO2 for 24 hours. The media was replaced with 100 μL fresh media containing 10 μL of WST-8. After two hours incubation, the absorbance was read at 450 nm with background correction at 630 nm. Untreated cells served as 100% viable cells, whereas media served as background. Percentage of viable cells was calculated by dividing the mean absorbance of each well by the absorbance of the untreated cells. Linear regression was performed utilizing the linear portion of the growth inhibition curve to determine the IC50 dose.
On the technique in general: Tetrazolium dyes change colour on reduction, which living cells bring about.

For another assay, the system named is GR. In words: MMTV luciferase assay. Conditions: data not shown.
[4] abbreviates: listed as Cort-Lys-Mce6 derivative.

“Mesochlorin e6 monoethylene diamine disodium salt [Mce6, reference compound]”: in assay [1] (disodium salt), the “subcellular localization of Mce6 fluorescence” value is given as “faint Mce6 fluorescence in the nucleus; also recorded: predominantly located in the cytoplasm”. Moreover, the “redistribution of GFP tagged GR from the cytoplasm to the nucleus” value in assay [2] (disodium salt) was “cannot cause redistribution of the GFP tagged GR; also recorded: did not induce any change in the localization of the receptors”. In addition, the IC50 in assay [3] was 5.3 ± 0.93 µM.

In the case of “alpha-N-(Cortisol-C17-carbamoyl)-Lysyl-Mesochlorin ethyl amide [Cort-Lys-Mce6]”, the “subcellular localization of Mce6 fluorescence” value in assay [1] is “located in the cytoplasm and in the nucleus”; in assay [1] (setting [4]) it was “colocalization of Mce6 and DAPI”. Besides, the “redistribution of GFP tagged GR from the cytoplasm to the nucleus” value in assay [2] is given as “increase in the fluorescence level in the nucleus”; in assay [2] (setting [4]), “able to shuttle GFP tagged GR from the cytoplasm to the nucleus”. In assay [3], the IC50 was determined as 1.96 ± 0.17 µM. Besides, the “ability to bind the GR and induce nuclear translocation” value in the assay on GR is on record as “independently verified”.

What is called IC50 is the concentration needed to halve the response being measured.

Source of the values: patent US20070287680A1, “Combined Active and Passive Targeting of Biologically Active Agents” (University of Utah Research Foundation, priority 2004, published 2007).
